We go through 25 compounds from ChEMBL document CHEMBL4028831, “Improvement of hERG-ROMK index of spirocyclic ROMK inhibitors through scaffold optimization and incorporation of novel pharmacophores” (Bioorg Med Chem Lett, 2017).

Structures are written as SMILES. Active and inactive are the calls of the source.

Data set [1] has as its system Rattus norvegicus. Put plainly: Antihypertensive activity in rat spontaneous hypertensive model assessed as change in systolic blood pressure at 3 mg/kg, po qd measured after 3 days. It counts as functional.
Data set [2] can be described thus: Clearance in Wistar Han rat at 0.5 mg/kg, iv or 1 mg/kg, po. Conditions: in vivo. It counts as ADME, organism-based.
The nature of data set [3]: Volume of distribution at steady state in Wistar Han rat at 0.5 mg/kg, iv or 1 mg/kg, po. Conditions: in vivo, read-out: Vdss. Type of data set: ADME, organism-based.
Data set [4] relates to Rattus norvegicus. Put plainly: Dose normalized AUC in Wistar Han rat at 1 mg/kg, po. The conditions noted are these: in vivo. Type of data set: ADME, organism-based.
The nature of data set [5]: Half life in Wistar Han rat at 0.5 mg/kg, iv or 1 mg/kg, po. It counts as ADME, organism-based. Conditions: in vivo.
The nature of data set [6]: Oral bioavailability in Wistar Han rat at 1 mg/kg. It counts as ADME, organism-based. The conditions noted are these: in vivo.
In data set [7] the test system is Rattus norvegicus. Put plainly: Antihypertensive activity in rat spontaneous hypertensive model assessed as induction of kaliuresis at 3 mg/kg, po qd measured after 3 days. It counts as functional, organism-based.
The test system of data set [8] is Rattus norvegicus. As to the kind of experiment: Antihypertensive activity in rat spontaneous hypertensive model assessed as induction of natriuresis at 3 mg/kg, po qd measured after 3 days. Type of data set: functional, organism-based.
Data set [9] can be described thus: Clearance in Beagle dog at 1 mg/kg, iv. It counts as ADME, organism-based, Canis lupus familiaris. Conditions: in vivo.
The nature of data set [10]: Volume of distribution at steady state in Beagle dog at 1 mg/kg, iv. It counts as ADME, organism-based, Canis lupus familiaris. Conditions: in vivo, read-out: Vdss.
Data set [11] is described as follows: Half life in Beagle dog at 1 mg/kg, iv. Type of data set: ADME, organism-based, Canis lupus familiaris. Conditions: in vivo.
Data set [12] relates to Rattus norvegicus. Put plainly: Antihypertensive activity in rat spontaneous hypertensive model assessed as induction of diuresis at 3 mg/kg, po qd measured after 3 days. Type of data set: functional, organism-based.
The test system of data set [13] is Rattus norvegicus. Put plainly: Antihypertensive activity in rat spontaneous hypertensive model assessed as change in systolic blood pressure at 25 mg/kg, po qd measured after 3 days. Type of data set: functional.
For data set [14], the target named is Voltage-gated inwardly rectifying potassium channel KCNH2 (Homo sapiens, UniProt Q12809). Put plainly: Displacement of [35S]MK499 from human ERG expressed in HEK293 cells.
Sequence of Voltage-gated inwardly rectifying potassium channel KCNH2 (Q12809 whole entry): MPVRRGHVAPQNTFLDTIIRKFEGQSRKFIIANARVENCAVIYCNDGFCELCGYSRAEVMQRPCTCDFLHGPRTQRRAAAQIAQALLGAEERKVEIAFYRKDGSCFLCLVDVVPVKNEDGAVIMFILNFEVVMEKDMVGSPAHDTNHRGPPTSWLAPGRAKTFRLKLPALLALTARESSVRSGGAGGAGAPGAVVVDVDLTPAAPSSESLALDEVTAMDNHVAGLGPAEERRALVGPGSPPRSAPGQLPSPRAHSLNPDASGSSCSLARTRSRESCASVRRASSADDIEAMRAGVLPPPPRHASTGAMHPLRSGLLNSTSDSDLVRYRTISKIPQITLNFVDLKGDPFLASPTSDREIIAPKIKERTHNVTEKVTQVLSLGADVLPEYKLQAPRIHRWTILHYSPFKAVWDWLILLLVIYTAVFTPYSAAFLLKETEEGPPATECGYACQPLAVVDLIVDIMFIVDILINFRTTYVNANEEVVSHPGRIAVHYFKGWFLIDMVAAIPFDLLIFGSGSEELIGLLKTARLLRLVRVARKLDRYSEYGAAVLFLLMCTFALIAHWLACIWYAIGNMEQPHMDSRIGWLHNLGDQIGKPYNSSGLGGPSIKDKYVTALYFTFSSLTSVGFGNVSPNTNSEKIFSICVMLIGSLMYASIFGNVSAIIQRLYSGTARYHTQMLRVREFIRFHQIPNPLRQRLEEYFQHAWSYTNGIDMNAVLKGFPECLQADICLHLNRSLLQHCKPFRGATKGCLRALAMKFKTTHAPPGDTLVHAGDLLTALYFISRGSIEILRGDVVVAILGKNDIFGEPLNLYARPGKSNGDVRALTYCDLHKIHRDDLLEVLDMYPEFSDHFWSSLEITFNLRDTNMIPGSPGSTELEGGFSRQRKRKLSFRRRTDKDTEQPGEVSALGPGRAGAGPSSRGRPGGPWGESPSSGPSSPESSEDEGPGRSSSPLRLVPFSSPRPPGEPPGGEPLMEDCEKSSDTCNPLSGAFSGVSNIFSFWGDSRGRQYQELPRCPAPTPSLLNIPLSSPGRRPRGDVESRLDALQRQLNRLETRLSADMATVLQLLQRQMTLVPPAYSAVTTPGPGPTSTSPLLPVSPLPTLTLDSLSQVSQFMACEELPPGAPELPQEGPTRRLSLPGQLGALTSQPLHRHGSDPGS
Data set [15] concerns the target T1, ATP-sensitive inward rectifier potassium channel 1 (Homo sapiens, UniProt P48048).
T1 sequence (P48048 whole entry): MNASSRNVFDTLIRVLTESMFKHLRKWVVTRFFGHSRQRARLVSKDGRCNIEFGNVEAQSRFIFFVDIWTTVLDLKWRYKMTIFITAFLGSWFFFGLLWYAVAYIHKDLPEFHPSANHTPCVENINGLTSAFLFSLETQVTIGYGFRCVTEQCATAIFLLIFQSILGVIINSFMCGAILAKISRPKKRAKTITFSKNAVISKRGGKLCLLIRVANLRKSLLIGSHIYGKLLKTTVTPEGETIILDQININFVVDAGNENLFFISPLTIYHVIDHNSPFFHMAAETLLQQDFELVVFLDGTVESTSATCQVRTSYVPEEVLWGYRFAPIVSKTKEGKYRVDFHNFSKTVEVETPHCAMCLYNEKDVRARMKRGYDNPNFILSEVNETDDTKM
Put plainly: Inhibition of human ROMK channel expressed in HEK293 cells after 30 mins by FLIPR based thallium flux assay. Type of data set: cell-based.

The species named for a further data set is Homo sapiens. Put plainly: Selectivity ratio of IC50 for human ERG expressed in HEK293 cells to IC50 for human ROMK expressed in HEK293 cells. Type of data set: cell-based.
For data set [16], the target named is T1, ATP-sensitive inward rectifier potassium channel 1. Put plainly: Inhibition of human ROMK expressed in CHO cells at -70 mV holding potential after 6 mins by whole cell patch clamp Qpatch method. Type of data set: cell-based. In general terms: Patch clamp records ionic current or voltage across a cell membrane.
Data set [17] in a line: Clearance in rat at 0.5 mg/kg, iv. Conditions: in vivo.

`COc1nsc(N2CCC3(CCN(C[C@H](O)c4ccc5c(c4C)COC5=O)CC3)C2=O)n1`: the Activity in the data set with Rattus norvegicus [1] is recorded as -23 mmHg. Also, the clearance in data set [2] was found to be 9.6 mL/min/kg; in [9] it was 24.4 mL/min/kg. Further, the Vd in data set [3] came out at 3 L/kg; in [10], 1.7 L/kg. This compound returned an AUC/dose in the data set on Rattus norvegicus [4] of 1.8 µM·kg·h/mg. Besides, the half-life (as a rule, the time needed for the level to fall by half in the phase considered) is 4.7 h in data set [5] and 1.3 h in data set [11]. Also, the bioavailability in data set [6] was determined as 47%. In the data set on Rattus norvegicus [7], the result was inactive. For the same compound, the outcome with Rattus norvegicus [8] and in the data set with Rattus norvegicus [12] was Active.

For the compound `NS(=O)(=O)c1cc2c(cc1Cl)NCNS2(=O)=O` [HYDROCHLOROTHIAZIDE], the Activity with Rattus norvegicus [13] is given as -7 mmHg.

`Cc1c([C@@H](O)[C@H](C)N2CCC3(CCN(c4ccc(=O)n(C)n4)C3=O)CC2)ccc2c1COC2=O`: the IC50 (in general, the concentration that gives 50% inhibition) in [14] is > 60000 nM.

With `Cc1cc(=O)n(C)nc1N1CCC2(CCN(C[C@H](O)c3ccc4c(c3C)COC4=O)CC2)C1=O`, the IC50 in [15] worked out at 1050 nM.

In the case of `Cc1c([C@@H](O)CN2CCC3(CC2)CCN(c2ccn(C)c(=O)c2)C3=O)ccc2c1COC2=O`, the IC50 in [15] amounted to 7600 nM.

In the case of `Cc1nc(-n2cnnn2)ccc1[C@@H](O)CN1CCC2(CC1)CCN(c1ccc(=O)n(C)n1)C2=O`, the IC50 in data set [14] came to 17200 nM. Besides, the Ratio IC50 in the data set filed under Homo sapiens stood at 66.

In data set [2], `COc1cc(N2CCC3(CCN(C[C@H](O)c4ccc5c(c4C)COC5=O)CC3)C2=O)ccn1` displayed a clearance of 20.8 mL/min/kg. Besides, in data set [3], the Vd amounted to 5 L/kg. The compound further returned an AUC/dose in the data set on Rattus norvegicus [4] of 1.2 µM·kg·h/mg. Moreover, the half-life in [5] is 4.1 h. Also, in data set [6], the bioavailability was determined as 66%.

In the case of `COc1nccc(N2CCC3(CCN(C[C@H](O)c4ccc5c(c4C)COC5=O)CC3)C2=O)n1`, the figures for the IC50 in data set [15] and in data set [16] were 14 nM and 5 nM, respectively. For the same compound, the figures for the clearance in data set [2] and in data set [9] were 7.8 mL/min/kg and 9.7 mL/min/kg, respectively. Moreover, the Vd in data set [3] amounted to 1.8 L/kg; in data set [10] it was 0.7 L/kg. This compound also showed an AUC/dose in the data set on Rattus norvegicus [4] of 3.8 µM·kg·h/mg. Also, the half-life in data set [5] was 4.1 h; in [11], 1 h. Also, the bioavailability in data set [6] was 80%.

For the compound `Cn1nc(N2CCC3(CCN(C[C@H](O)c4ccc(-n5cnnn5)nn4)CC3)C2=O)ccc1=O`, the IC50 is 570 nM in [15] and 3100 nM in [14]. Also, in the data set listed under Homo sapiens, the Ratio IC50 was 5.

Turning to `Cc1c([C@@H](O)CN2CCC3(CC2)CCN(c2cn(C)c(=O)cn2)C3=O)ccc2c1COC2=O`, the 50% inhibitory concentration (IC50) in data set [14] was > 60000 nM.

The compound `Cc1c([C@@H](O)CN2CCC3(CC2)CN(c2ccns2)C(=O)O3)ccc2c1COC2=O` yielded an IC50 in data set [15] of 5100 nM.

For the compound `Cc1c([C@@H](O)CN2CCC3(CC2)CCN(c2cnn(C)c(=O)c2)C3=O)ccc2c1COC2=O`, in [15], the IC50 was 180 nM.

For the compound `Cc1nsc(N2CCC3(CCN(C[C@H](O)c4ccc5c(c4C)COC5=O)CC3)C2=O)n1`, the Activity in the data set with Rattus norvegicus [1] is on record as -10 mmHg. In data set [2], this compound displayed a clearance of 41 mL/min/kg. Moreover, the Vd in data set [3] is 4.2 L/kg. This compound also had an AUC/dose in the data set on Rattus norvegicus [4] of 1 µM·kg·h/mg. In data set [5], the half-life was 1.9 h. In [6], the bioavailability came to 106%. In data set [16], this compound had a half-maximal inhibitory concentration (IC50) of 8 nM. Further, the outcome in the data set with Rattus norvegicus [7] was inactive. The outcome in the data set with Rattus norvegicus [8] and with Rattus norvegicus [12] was Active.

`Cc1c([C@@H](O)CN2CCC3(CC2)CCN(c2ccns2)C3=O)ccc2c1COC2=O`: the Activity in the data set on Rattus norvegicus [1] is listed as -6 mmHg. Further, the outcome in the data set on Rattus norvegicus [7] was inactive. Further, the result in the data set with Rattus norvegicus [8] and in the data set on Rattus norvegicus [12] was Active.

Take `Cc1c([C@@H](O)CN2CCC3(CC2)CCN(c2ccc(=O)n(C4CCCC4)n2)C3=O)ccc2c1COC2=O`: the IC50 stood at 41 nM in data set [15] and 13500 nM in data set [14]. Moreover, the Ratio IC50 in the data set listed under Homo sapiens is 329.

For `CCn1nc(N2CCC3(CCN(C[C@H](O)c4ccc5c(c4C)COC5=O)CC3)C2=O)ccc1=O`, in data set [14], the IC50 was found to be 7600 nM. Also, the Ratio IC50 in the data set listed under Homo sapiens is 99.

Turning to `Cc1cc(N2CCC3(CCN(C[C@H](O)c4ccc5c(c4C)COC5=O)CC3)C2=O)sn1`, the IC50 in [15] is 18 nM; in [16], 12 nM. The same compound registered a clearance in data set [2] of 23 mL/min/kg. For the same compound, in data set [3], the Vd was determined as 3.2 L/kg. The compound further yielded an AUC/dose with Rattus norvegicus [4] of 0.73 µM·kg·h/mg. The same compound gave a half-life in data set [5] of 2.4 h. In data set [6], the bioavailability was determined as 45%.

`Cc1nsc(N2CCC3(CCN(C[C@H](O)c4ccc5c(c4C)COC5=O)CC3)C2)n1` returned an IC50 in data set [14] of 4200 nM. Also, the Ratio IC50 in the data set listed under Homo sapiens is 17.

As for `Cc1c([C@@H](O)CN2CCC3(CC2)CCN(c2ccc(=O)n(C(F)F)n2)C3=O)ccc2c1COC2=O`, the IC50 amounted to 130 nM in [15] and 19100 nM in [14]. In addition, in the data set filed under Homo sapiens, the Ratio IC50 stood at 147.

In [2], `Cc1c([C@@H](O)CN2CCC3(CC2)CCN(c2ccncc2)C3=O)ccc2c1COC2=O` gave a clearance of 128 mL/min/kg. The Vd in data set [3] is 21.5 L/kg. The compound further registered an AUC/dose in the data set with Rattus norvegicus [4] of 0.11 µM·kg·h/mg. The half-life in data set [5] was 2 h. For the same compound, the bioavailability in [6] was found to be 37%.

With `Cc1c([C@@H](O)CN2CCC3(CC2)CCN(c2ccc(S(C)(=O)=O)cn2)C3)ccc2c1COC2=O`, the clearance in data set [17] amounted to 24.2 mL/min/kg.

As to `Cc1c([C@@H](O)CN2CCC3(CC2)CCN(c2cc(-c4ccccc4)no2)C3=O)ccc2c1COC2=O`, in [14], the IC50 amounted to 54 nM. Moreover, the Ratio IC50 in the data set listed under Homo sapiens is 0.11.

In [15], `Cc1c([C@@H](O)CN2CCC3(CC2)CCN(c2ccns2)C3)ccc2c1COC2=O` registered an IC50 of 27 nM.

Regarding `Cc1c([C@@H](O)CN2CCC3(CC2)CN(c2ccc(=O)n(C)n2)C3)ccc2c1COC2=O`, in data set [15], the IC50 was > 2000 nM.

Compound `Cc1nccc(N2CCC3(CCN(C[C@H](O)c4ccc5c(c4C)COC5=O)CC3)C2=O)n1` displayed an IC50 in data set [15] of 190 nM. Besides, the Activity in the data set with Rattus norvegicus [1] is reported as -11 mmHg. In data set [2], the clearance was determined as 30.3 mL/min/kg. The Vd in data set [3] was found to be 4.4 L/kg. For the same compound, the AUC/dose in the data set on Rattus norvegicus [4] was determined as 1.6 µM·kg·h/mg. In [5], this compound showed a half-life of 2.6 h. Moreover, in data set [6], the bioavailability came to 120%. Besides, the outcome in the data set on Rattus norvegicus [7] was inactive. Moreover, the outcome in the data set with Rattus norvegicus [8] and in the data set on Rattus norvegicus [12] was Active.
